Assay results published in article PMC12566971, “Polyprenylated Acylphloroglucinols from Hypericum rochelii and Hypericum olympicum—Cytotoxic Effects on Non-Tumorigenic Cell Lines and Antibacterial Potential” (Pharmaceuticals, 2025).
≈ marks a conversion by molar mass, not a printed value.

Experiments:
Staphylococcus aureus = conditions: ref [4],[29]; cited from earlier work
icaA gene in MRSA = experiment: Real-time PCR, relative gene expression; type: cell-based, Staphylococcus aureus; conditions: control = 1
Description: (§1) The preparation of the samples for the RNA isolation was carried out as for the biofilm assay. RNA from the treated samples and the untreated positive MRSA control was isolated with the help of the Environmental DNA & RNA Purification Kit (E3572, EURx Ltd., Gdańsk, Poland). […] A total of 50 µL lysozyme (20 mg/mL) from chicken egg white (L6876, Merck Sigma-Aldrich) and 10 µL lysostaphin (L4402, Merck Sigma-Aldrich) from Staphylococcus staphylolyticus (200 U/mL) were added per sample. […] The samples, being bacterial, were subjected to cDNA synthesis using random hexamer primers and reverse transcriptase enzymes. The obtained cDNA samples were stored at −80 °C and used for real-time PCR.
(§2) For normalization of the data, the rho gene was used as a housekeeping gene.

icaD gene in MRSA = experiment: Real-time PCR, relative gene expression; type: cell-based, Staphylococcus aureus; conditions: control = 1
Description: as §1, §2

CCL-1 cells = experiment: Colony-forming unit assay; type: cell-based, murine; conditions: for Percentage of colonies, CCL-1: untreated control = 100%
Description: The CFU was also performed according to ISO 10993-5 [56]. Briefly, the cell lines were seeded at a concentration like for the MTT assay in 6-well plates, treated with the chosen agents and left for a 48 h exposure. Then, the cells were trypsinized, and pre-calculated 20 to 100 µL from the cell suspension was added to a sterile Roswell Park Memorial Institute (RPMI) medium (RPMI-A, Capricorn Scientific), containing 20% of the respective cell culture medium for each cell line but with a final concentration of FBS and L-glutamine of 40–42% and 0.8–1.2 mM, respectively, 0.2% NaHCO3 (S6297, Merck Sigma-Aldrich, Saint Louis, MI, USA), and 0.8% methylcellulose (M0512, Merck Sigma-Aldrich) for viscosity. The viscous cell solution was vortexed for 10 s and dispensed in an equal number of cells per well in 6-well plates (1.2 mL per well) in triplicate for each concentration of treatment. HaCaT and HEK-293 were seeded at a concentration of 2500 cells per mL, CCL-1 and HEPG2—2000 cells per mL, and HGF—1000 cells per mL. The plates were incubated for 6 to 10 days, and when the colonies reached 20 to 50 cells per colony, 100 µL MTT salt solution was added to each well. After half an hour, the stained colonies were counted manually using a microscope.

CC(C)=CCCC1(C)C(CC=C(C)C)CC2C(=O)C1(C(=O)C(C)C)C(=O)C(CC=C(C)C)=C2O (stereo not shown) [Olympiforin B]
MIC on bacteria, S. aureus (Staphylococcus aureus): 1 µg/mL (≈ 2.13 µM)
Relative gene expression, icaA (icaA gene in MRSA; 1/8 × MIC): 0.37
Relative gene expression, icaA (icaA gene in MRSA; 1/16 × MIC): 0.53
Relative gene expression, icaA (icaA gene in MRSA; 1/32 × MIC): 0.28
Relative gene expression, icaD (icaD gene in MRSA; 1/8 × MIC): 0.41
Relative gene expression, icaD (icaD gene in MRSA; 1/16 × MIC): 0.82
Relative gene expression, icaD (icaD gene in MRSA; 1/32 × MIC): 0.95
Colonies per well for CCL-1 cells (CCL-1 cells; 1/2 × IC50, 48 h exposure): 167
Percentage of colonies, CCL-1 (CCL-1 cells; 1/2 × IC50): 106%
Colonies per well for CCL-1 cells (CCL-1 cells; 2 × IC50, 48 h exposure): 61
Percentage of colonies, CCL-1 (CCL-1 cells; 2 × IC50): 39%
Colonies per well for CCL-1 cells (CCL-1 cells; IC50, 48 h exposure): 62
Percentage of colonies, CCL-1 (CCL-1 cells; IC50): 40%
